Tests used:
HuapoAI transgenic mice = test: Evaluation of triglyceride and cholesterol level in HuapoAI transgenic mice; format: in vivo; conditions: Mus musculus, 168 h, human apoAI transgenic mice, 30 mg/kg oral gavage daily for 7 days; for change in vivo at 30 mg/kg: FPLC area under the curve, over mice receiving vehicle, read-out: % HDLc Increase; for inhibition in vivo at 30 mg/kg: serum 3 h after dosing, read-out: Reduction in Triglyceride Serum Level
Description: After an acclimation period of 2 weeks, animals were individually identified by ear notches, weighed, and assigned to groups based on body weight. Beginning the following morning, mice were dosed daily by oral gavage for 7 days using a 20 gauge, 1½″ curved disposable feeding needle (Popper & Sons). […] Prior to termination on day 7, mice were weighed and dosed. Three hours after dosing, animals were anesthetized by inhalation of isoflurane (2-4%; Abbott Laboratories, Chicago, Ill.) and blood obtained via cardiac puncture (0.7-1.0 ml). Whole blood was transferred to serum separator tubes (Vacutainer SST), chilled on ice, and permitted to clot. Serum was obtained after centrifugation at 4° C. and frozen until analysis for triglycerides, total cholesterol, compound levels, and serum lipoprotein profile by fast protein liquid chromatography (FPLC) coupled to an inline detection system. After sacrifice by cervical dislocation, the liver, heart and epididymal fat pads were excised and weighed.
The absorbance of the dye produced is linearly related to the analyte in the sample. The assays were further modified in our laboratory for use in a 96 well format. […] An additional aliquot of sample, pipetted to a third well and diluted in 200 μl water, provided a blank for each specimen. […] Sample absorbances were compared to a standard curve (100-800, 10-500, and 100-400 mg/dl for glucose, triglycerides and total cholesterol, respectively). […] All samples from an experiment were assayed at the same time to minimize inter-assay variability.
Serum lipoproteins were separated and cholesterol quantitated with an in-line detection system. Sample was applied to a Superose® 6 HR 10/30 size exclusion column (Amersham Pharmacia Biotech) and eluted with phosphate buffered saline-EDTA at 0.5 ml/min. […] The change in voltage corresponding to change in cholesterol concentration was plotted vs time and the area under the curve corresponding to the elution of VLDL, LDL and HDL was calculated using Perkin Elmer Turbochrome software.

huPPARγ = target: T1, huPPARγ (Homo sapiens, UniProt P37231); test: DNA-dependent binding (ABCD binding) using SPA technology, huPPARγ; conditions: SPA displacement of tritium-labeled PPARγ agonist radioligand
T1 sequence (P37231 1-505): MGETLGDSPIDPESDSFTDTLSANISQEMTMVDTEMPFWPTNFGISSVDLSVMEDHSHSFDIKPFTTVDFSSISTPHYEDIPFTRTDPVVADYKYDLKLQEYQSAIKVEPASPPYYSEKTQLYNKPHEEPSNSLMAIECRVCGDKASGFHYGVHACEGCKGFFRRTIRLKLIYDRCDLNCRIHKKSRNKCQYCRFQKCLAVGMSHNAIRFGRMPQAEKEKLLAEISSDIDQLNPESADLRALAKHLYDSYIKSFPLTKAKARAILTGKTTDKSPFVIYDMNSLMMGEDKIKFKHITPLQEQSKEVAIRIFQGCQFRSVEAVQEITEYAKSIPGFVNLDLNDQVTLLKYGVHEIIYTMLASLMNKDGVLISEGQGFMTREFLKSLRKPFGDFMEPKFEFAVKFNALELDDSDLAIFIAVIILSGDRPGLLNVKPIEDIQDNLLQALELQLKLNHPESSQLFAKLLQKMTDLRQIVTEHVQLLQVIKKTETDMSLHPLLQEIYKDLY
T1 sequence (P19793 1-462 partner): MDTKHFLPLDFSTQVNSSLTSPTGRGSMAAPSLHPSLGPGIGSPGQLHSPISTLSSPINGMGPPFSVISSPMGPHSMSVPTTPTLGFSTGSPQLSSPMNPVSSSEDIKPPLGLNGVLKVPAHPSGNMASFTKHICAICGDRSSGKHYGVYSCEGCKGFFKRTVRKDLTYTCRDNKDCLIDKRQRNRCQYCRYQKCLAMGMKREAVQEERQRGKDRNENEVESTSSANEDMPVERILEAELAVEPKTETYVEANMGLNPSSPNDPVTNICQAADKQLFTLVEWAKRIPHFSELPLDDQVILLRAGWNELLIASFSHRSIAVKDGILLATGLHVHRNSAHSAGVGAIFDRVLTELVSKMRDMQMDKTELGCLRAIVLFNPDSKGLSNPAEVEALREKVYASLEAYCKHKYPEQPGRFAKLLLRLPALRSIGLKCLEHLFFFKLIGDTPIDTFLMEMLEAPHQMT
Description: DNA-dependent binding (ABCD binding) was carried out using SPA technology with PPAR receptors. Tritium-labeled PPARα and PPARγ agonists were used as radioligands for generating displacement curves and IC50 values with compounds of the invention. Cotransfection assays were carried out in CV-1 cells. The reporter plasmid contained an acylCoA oxidase (AOX) PPRE and TK promoter upstream of the luciferase reporter cDNA. Appropriate PPARs and RXRα were constitutively expressed using plasmids containing the CMV promoter. […] In order to eliminate such interference, a GAL4 chimeric system was used in which the DNA binding domain of the transfected PPAR was replaced by that of GAL4, and the GAL4 response element was utilized in place of the AOX PPRE. Cotransfection efficacy was determined relative to PPARα agonist and PPARγ agonist reference molecules. Efficacies were determined by computer fit to a concentration-response curve, or in some cases at a single high concentration of agonist (10 μM). For binding or cotransfection studies with receptors other than PPARs, similar assays were carried out using appropriate ligands, receptors, reporter constructs, etc., for that particular receptor.
These studies were carried out to evaluate the ability of compounds of the invention to bind to and/or activate various nuclear transcription factors, particularly huPPARα (“hu” indicates “human”) and huPPARγ. These studies provide in vitro data concerning efficacy and selectivity of compounds of the invention. Furthermore, binding and cotransfection data for compounds of the invention were compared with corresponding data for marketed compounds that act on either huPPARα or huPPARγ.

Row | SMILES | change in vivo at 30 mg/kg (HuapoAI transgenic mice) [%] | inhibition in vivo at 30 mg/kg (HuapoAI transgenic mice) [%] | IC50 (huPPARγ) [nM]
1 | Cc1oc(C2CCCCC2)nc1CCOc1ccc(CC(C)(Oc2cccc(F)c2)C(=O)O)cc1 (centres unmarked) [Example 23, 2-(3-Fluoro-phenoxy)-2-methyl-3-{4-[2-(5-methyl-2-cyclohexyl-oxazol-4-yl)-ethoxy]-phenyl}-propionic acid] | 54 | 52.5 | 81
2 | Cc1oc(-c2ccccc2)nc1CCOc1ccc(CC(C)(Oc2ccc(Cl)cc2)C(=O)O)cc1 (centres unmarked) [Example 29, 2-(4-Chloro-phenoxy)-2-methyl-3-{4-[2-(5-methyl-2-phenyl-oxazol-4-yl)-ethoxy]-phenyl}-propionic acid] | 78 | – | 48
3 | COc1ccc(OC(C)(Cc2ccc(OCCc3nc(-c4cccs4)oc3C)cc2)C(=O)O)cc1 (centres unmarked) [Example 19, 2-Methyl-3-{4-[2-(5-methyl-2-thiophen-2-yl-oxazol-4-yl)-ethoxy]-phenyl}-2-(4-methoxyphenoxy)-propionic acid] | 89 | 40 | 80
4 | Cc1oc(CCc2ccccc2)nc1CCOc1ccc(C[C@](C)(Oc2ccccc2)C(=O)O)cc1 [Example 86, (S)-2-Methyl-3-{4-[2-(5-methyl-2-phenethyl-oxazol-4-yl)-ethoxy]-phenyl}-2-phenoxy-propionic acid] | 36 | 30.1 | 72
5 | Cc1oc(C2CCCCC2)nc1CCOc1ccc(CC(C)(Oc2ccc(OC(F)(F)F)cc2)C(=O)O)cc1 (centres unmarked) [Example 44, 3-{4-[2-(2-Cyclohexyl-5-methyl-oxazol-4-yl)-ethoxy]-phenyl}-2-methyl-2-(4-trifluoromethoxy-phenoxy)-propionic acid] | 151 | – | 159
6 | Cc1oc(-c2cccs2)nc1CCOc1ccc(CC(C)(Oc2cccc(C(C)(C)C)c2)C(=O)O)cc1 (centres unmarked) [Example 25, 2-(3-tert-Butyl-phenoxy)-2-methyl-3-{4-[2-(5-methyl-2-thiophen-2-yl-oxazol-4-yl)-ethoxy]-phenyl}-propionic acid] | 8 | 35.5 | 70
7 | Cc1ccc(OC(C)(Cc2ccc(OCCc3nc(C4CCCCC4)oc3C)cc2)C(=O)O)cc1 (centres unmarked) [Example 41, 3-{4-[2-(2-Cyclohexyl-5-methyl-oxazol-4-yl)-ethoxy]-phenyl}-2-methyl-2-p-tolyloxy-propionic acid] | 96 | 57.8 | 109
8 | Cc1oc(-c2cccs2)nc1CCOc1ccc(CC(C)(Oc2ccc(C(F)(F)F)cc2)C(=O)O)cc1 (centres unmarked) [Example 51, 2-Methyl-3-{4-[2-(5-methyl-2-thiophen-2-yl-oxazol-4-yl)-ethoxy]-phenyl}-2-(4-trifluoromethyl-phenoxy)-propionic acid] | 122 | 72.8 | 80
9 | Cc1oc(-c2cccs2)nc1CCOc1ccc(CC(C)(Oc2ccc(C(C)(C)C)cc2)C(=O)O)cc1 (centres unmarked) [Example 17, 2-Methyl-3-{4-[2-(5-methyl-2-thiophen-2-yl-oxazol-4-yl)-ethoxy]-phenyl}-2-(4-tert-butylphenoxy)-propionic acid] | 119 | 78.7 | 67
10 | Cc1oc(C2CCCCC2)nc1CCOc1ccc(CC(C)(Oc2ccc(C(C)(C)C)cc2)C(=O)O)cc1 (centres unmarked) [Example 18, 2-Methyl-3-(4-{2-[5-methyl-2-cyclohexylyl-oxazol-4-yl]-ethoxy}-phenyl)-2-(4-tert-butylphenoxy)-propionic acid] | 141 | 69 | 60
11 | Cc1oc(C2(C)CCCCC2)nc1CCOc1ccc(C[C@](C)(Oc2ccc(F)cc2)C(=O)O)cc1 [Example 67, (S)-2-(4-Fluoro-phenoxy)-2-methyl-3-(4-{2-[5-methyl-2-(1-methyl-cyclohexyl)-oxazol-4-yl]-ethoxy}-phenyl)-propionic acid] | 76 | 67.8 | 65
12 | Cc1oc(C2CCCCC2)nc1CCOc1ccc(CC(C)(Oc2ccc(C(F)(F)F)cc2)C(=O)O)cc1 (centres unmarked) [Example 52, 3-{4-[2-(2-Cyclohexyl-5-methyl-oxazol-4-yl)-ethoxy]-phenyl}-2-methyl-2-(4-trifluoromethyl-phenoxy)-propionic acid] | 185 | 75.9 | 76
13 | Cc1oc(-c2cccc(Br)c2)nc1CCOc1ccc(CC(C)(Oc2ccccc2)C(=O)O)cc1 (centres unmarked) [Example 8, 3-(4-{2-[2-(3-Bromophenyl)-5-methyloxazol-4-yl]ethoxy}phenyl)-2-methyl-2-phenoxypropionic acid] | 34 | – | 24
14 | Cc1ccc(OC(C)(Cc2ccc(OCCc3nc(C4CCCCC4)oc3C)cc2)C(=O)O)cc1C (centres unmarked) [Example 35, 3-{4-[2-(2-Cyclohexyl-5-methyl-oxazol-4-yl)-ethoxy]-phenyl}-2-(3,4-dimethyl-phenoxy)-2-methyl-propionic acid] | 77 | 32.3 | 79
15 | Cc1oc(-c2cccs2)nc1CCOc1ccc(CC(C)(Oc2cccc(C(F)(F)F)c2)C(=O)O)cc1 (centres unmarked) [Example 71, 2-Methyl-3-{4-[2-(5-methyl-2-thiophen-2-yl-oxazol-4-yl)-ethoxy]-phenyl}-2-(3-trifluoromethyl-phenoxy)-propionic acid] | 34 | – | 81
16 | Cc1oc(-c2cccs2)nc1CCOc1ccc(CC(C)(Oc2cccc(F)c2)C(=O)O)cc1 (centres unmarked) [Example 22, 2-(3-Fluoro-phenoxy)-2-methyl-3-{4-[2-(5-methyl-2-thiophen-2-yl-oxazol-4-yl)-ethoxy]-phenyl}-propionic acid] | 29 | 19.5 | 85
17 | COc1cccc(OC(C)(Cc2ccc(OCCc3nc(C4CCCCC4)oc3C)cc2)C(=O)O)c1 (centres unmarked) [Example 76, 3-{4-[2-(2-Cyclohexyl-5-methyl-oxazol-4-yl)-ethoxy]-phenyl}-2-(3-methoxy-phenoxy)-2-methyl-propionic acid] | 26 | 27.1 | 83

— patent US7345070B2, “Peroxisome proliferator activated receptor agonists” (Eli Lilly and Company, priority 2000, dated 2008)
